In ChEMBL document CHEMBL1201862, “PubChem BioAssay data set” (2004):
Activity calls are given as the source filed them.

Experiments:
[1] = target: T1, RNA-binding protein pos-1 (Caenorhabditis elegans, UniProt G5EF15); test: inhibitors of POS-1/mex-3 RNA binding, dose response, biochemical, fluorescence polarization (AID 1964);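 also: purified POS-1 fused to maltose binding protein made in E. coli; potency of compounds blocking POS-1 binding to fluorescent RNA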
T1 sequence (G5EF15 whole entry): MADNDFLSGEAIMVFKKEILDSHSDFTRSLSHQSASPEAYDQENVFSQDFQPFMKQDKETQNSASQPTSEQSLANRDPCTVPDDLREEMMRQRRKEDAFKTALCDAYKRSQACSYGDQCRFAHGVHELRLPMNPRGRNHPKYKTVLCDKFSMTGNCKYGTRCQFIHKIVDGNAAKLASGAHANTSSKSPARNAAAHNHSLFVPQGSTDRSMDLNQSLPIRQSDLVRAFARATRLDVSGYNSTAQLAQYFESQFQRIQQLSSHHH

[2] = target: T2, Carboxy-terminal domain RNA polymerase II polypeptide A small phosphatase 1 (Homo sapiens, UniProt Q9GZU7); test: inhibitors of CTDSP1, concentration-response testing, biochemical assay, absorbance-based, actives from ultra-high-throughput screening (AID 540297); format: functional
T2 sequence (Q9GZU7 whole entry): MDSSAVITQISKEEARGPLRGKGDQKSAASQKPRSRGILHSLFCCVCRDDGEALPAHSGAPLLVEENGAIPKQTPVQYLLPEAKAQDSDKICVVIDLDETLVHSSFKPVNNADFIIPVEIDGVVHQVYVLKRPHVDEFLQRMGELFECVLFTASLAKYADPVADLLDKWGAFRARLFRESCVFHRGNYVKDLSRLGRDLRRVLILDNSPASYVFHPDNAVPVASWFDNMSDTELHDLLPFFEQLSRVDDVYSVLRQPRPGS

[3] = THP-1 cell cytotoxicity, dose response, cytotoxicity control for Vif-APOBEC3G degradation inhibitor project, THP-1 cells (AID 1117359); format: functional; conditions: Human immunodeficiency virus 1, THP-1
[4] = target: T3, Zinc finger protein mex-5 (Caenorhabditis elegans, UniProt Q9XUB2); test: MEX-5/TCR-2 RNA interaction inhibitors, dose response, biochemical, C. elegans, fluorescence polarization (AID 1960)
T3 sequence (Q9XUB2 whole entry): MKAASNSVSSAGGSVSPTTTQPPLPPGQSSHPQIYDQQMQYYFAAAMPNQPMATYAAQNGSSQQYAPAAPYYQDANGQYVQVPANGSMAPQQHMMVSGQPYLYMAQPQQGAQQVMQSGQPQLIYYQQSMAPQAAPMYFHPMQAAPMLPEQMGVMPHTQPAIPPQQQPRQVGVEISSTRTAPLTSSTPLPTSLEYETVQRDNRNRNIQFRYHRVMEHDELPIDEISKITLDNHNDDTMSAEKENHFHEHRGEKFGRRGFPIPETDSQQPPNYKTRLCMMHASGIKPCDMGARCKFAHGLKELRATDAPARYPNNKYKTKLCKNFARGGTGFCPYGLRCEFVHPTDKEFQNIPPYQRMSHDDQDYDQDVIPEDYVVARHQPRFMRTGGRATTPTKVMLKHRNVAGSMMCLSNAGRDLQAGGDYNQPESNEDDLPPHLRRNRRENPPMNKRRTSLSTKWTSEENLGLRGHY

[5] = target: T4, Rac GTPase-activating protein 1 (Homo sapiens, UniProt Q9H0H5); test: MgcRacGAP GTPase-activating activity inhibitors, confirmation, biochemical, ADP Hunter fluorescence, primary and confirmatory (AID 624330); format: functional
T4 sequence (Q9H0H5 whole entry): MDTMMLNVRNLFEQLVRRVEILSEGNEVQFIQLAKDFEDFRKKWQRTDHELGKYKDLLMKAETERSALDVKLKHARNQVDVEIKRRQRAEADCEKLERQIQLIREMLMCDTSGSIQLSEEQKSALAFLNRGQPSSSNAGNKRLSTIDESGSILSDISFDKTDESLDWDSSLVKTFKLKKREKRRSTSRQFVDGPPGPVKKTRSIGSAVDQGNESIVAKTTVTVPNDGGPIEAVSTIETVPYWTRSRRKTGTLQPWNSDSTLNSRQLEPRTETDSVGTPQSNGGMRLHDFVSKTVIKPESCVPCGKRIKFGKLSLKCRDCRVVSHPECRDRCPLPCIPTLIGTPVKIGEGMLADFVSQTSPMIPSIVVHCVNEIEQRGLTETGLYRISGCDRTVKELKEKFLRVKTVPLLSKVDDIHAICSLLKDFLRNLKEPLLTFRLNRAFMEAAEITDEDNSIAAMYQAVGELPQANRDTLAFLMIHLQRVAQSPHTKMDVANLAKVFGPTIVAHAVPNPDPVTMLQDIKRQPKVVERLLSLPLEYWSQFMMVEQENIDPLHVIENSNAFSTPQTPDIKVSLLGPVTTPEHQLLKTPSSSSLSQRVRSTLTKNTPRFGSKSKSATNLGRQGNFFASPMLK

[6] = target: T5, Leucine aminopeptidase (Plasmodium falciparum 3D7, UniProt Q8IL11); test: P. falciparum M17LAP inhibitors, primary screen, biochemical, fluorogenic H-Leu-NHMec substrate, 1536-well (AID 1619); format: functional
T5 sequence (Q8IL11 whole entry): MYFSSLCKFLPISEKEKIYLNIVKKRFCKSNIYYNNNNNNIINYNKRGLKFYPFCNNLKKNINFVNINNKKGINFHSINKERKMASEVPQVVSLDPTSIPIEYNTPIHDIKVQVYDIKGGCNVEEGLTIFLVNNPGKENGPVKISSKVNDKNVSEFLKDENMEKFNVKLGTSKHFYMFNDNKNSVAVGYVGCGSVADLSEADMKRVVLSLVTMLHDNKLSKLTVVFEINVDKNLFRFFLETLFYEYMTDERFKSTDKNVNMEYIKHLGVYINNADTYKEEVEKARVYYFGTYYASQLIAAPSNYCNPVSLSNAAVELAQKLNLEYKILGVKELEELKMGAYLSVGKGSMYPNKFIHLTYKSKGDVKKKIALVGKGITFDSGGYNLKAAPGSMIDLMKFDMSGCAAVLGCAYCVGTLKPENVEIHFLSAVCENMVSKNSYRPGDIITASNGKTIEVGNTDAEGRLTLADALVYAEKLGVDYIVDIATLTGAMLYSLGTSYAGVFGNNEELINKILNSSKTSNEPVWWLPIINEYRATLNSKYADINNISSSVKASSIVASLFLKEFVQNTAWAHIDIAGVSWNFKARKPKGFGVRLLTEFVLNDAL

[7] = target: Protein-tyrosine kinase 2-beta (Homo sapiens, UniProt Q14289);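 also: potency of inhibitors of PYK2 kinase phosphorylation of poly-GT substrate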
[8] = target: Estrogen receptor beta (Homo sapiens, UniProt Q92731); test: ERβ–SRC-3 coactivator interaction inhibitors, confirmation, orthogonal assay, biochemical, ELISA, streptavidin-HRP readout (AID 1060)
[9] = target: T6, Apoptotic protease-activating factor 1 (Homo sapiens, UniProt O14727); format: functional
T6 sequence (O14727 whole entry): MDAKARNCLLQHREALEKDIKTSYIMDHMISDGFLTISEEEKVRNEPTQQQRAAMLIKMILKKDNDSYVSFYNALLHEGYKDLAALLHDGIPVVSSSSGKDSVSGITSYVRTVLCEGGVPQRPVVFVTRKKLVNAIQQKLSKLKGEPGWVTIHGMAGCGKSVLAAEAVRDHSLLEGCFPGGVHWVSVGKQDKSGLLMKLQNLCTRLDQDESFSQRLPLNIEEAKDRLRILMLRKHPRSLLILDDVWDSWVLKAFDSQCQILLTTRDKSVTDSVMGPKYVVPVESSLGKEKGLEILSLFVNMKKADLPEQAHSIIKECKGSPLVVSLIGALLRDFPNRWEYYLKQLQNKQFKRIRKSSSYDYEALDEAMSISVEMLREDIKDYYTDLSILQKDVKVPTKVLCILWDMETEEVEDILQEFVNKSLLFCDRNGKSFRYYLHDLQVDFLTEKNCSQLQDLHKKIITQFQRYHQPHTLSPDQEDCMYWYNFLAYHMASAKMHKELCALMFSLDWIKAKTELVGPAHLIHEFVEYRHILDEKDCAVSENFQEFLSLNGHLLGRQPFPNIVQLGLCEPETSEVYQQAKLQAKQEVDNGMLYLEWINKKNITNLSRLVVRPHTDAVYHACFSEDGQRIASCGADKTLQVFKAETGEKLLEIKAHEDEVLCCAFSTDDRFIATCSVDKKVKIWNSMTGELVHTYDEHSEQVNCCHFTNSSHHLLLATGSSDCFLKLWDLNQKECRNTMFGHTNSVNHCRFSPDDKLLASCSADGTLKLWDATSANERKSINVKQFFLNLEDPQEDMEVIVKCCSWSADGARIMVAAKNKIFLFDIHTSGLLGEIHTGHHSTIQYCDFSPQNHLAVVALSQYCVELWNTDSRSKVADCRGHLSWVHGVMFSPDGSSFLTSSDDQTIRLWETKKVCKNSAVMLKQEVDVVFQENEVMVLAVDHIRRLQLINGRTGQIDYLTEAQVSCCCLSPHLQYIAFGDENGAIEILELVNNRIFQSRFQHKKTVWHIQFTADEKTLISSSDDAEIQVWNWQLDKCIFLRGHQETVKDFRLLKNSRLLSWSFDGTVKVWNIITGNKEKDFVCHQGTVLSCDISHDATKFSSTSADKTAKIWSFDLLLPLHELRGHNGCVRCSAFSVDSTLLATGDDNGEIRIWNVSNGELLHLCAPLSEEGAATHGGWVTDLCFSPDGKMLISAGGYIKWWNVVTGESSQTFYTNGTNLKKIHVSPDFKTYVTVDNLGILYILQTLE

[10] = target: Voltage-gated N-type calcium channel alpha-1B subunit/Amyloid beta A4 precursor protein-binding family A member 1 (Homo sapiens, UniProt Q00975+Q02410); format: protein assay
[11] = target: T7, Corticotropin-releasing factor receptor 2/Corticotropin-releasing factor-binding protein (Homo sapiens, UniProt P24387+Q13324); test: activators of CRF receptor 2 with binding protein – uHTS hits, confirmation (AID 602473); format: functional; conditions: read-out: EC50_Mean
T7 sequence (Q13324 whole entry): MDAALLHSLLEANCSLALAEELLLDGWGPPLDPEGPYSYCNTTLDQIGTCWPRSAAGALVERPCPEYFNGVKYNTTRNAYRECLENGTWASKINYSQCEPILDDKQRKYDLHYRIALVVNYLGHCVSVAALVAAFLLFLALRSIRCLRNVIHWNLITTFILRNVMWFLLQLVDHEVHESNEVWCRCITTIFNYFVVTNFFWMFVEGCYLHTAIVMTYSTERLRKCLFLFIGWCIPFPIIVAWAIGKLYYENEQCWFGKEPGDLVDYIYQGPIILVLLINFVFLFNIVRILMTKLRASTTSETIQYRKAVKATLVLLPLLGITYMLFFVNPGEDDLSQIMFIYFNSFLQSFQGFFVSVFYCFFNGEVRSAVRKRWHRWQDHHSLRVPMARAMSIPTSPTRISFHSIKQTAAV
T7 sequence (P24387 whole entry): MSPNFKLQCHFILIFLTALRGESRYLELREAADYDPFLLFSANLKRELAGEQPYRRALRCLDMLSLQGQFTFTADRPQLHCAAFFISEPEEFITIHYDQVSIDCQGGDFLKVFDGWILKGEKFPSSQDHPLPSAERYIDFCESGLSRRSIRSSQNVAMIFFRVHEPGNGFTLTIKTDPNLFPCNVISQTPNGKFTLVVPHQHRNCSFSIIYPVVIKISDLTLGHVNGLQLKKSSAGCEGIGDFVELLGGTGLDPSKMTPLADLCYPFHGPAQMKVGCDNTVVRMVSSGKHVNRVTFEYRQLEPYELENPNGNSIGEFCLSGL

[12] = target: T8, Estrogen receptor (Homo sapiens, UniProt P03372);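 also: potency for inhibiting coactivator peptide recruitment to the receptor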
T8 sequence (P03372 whole entry): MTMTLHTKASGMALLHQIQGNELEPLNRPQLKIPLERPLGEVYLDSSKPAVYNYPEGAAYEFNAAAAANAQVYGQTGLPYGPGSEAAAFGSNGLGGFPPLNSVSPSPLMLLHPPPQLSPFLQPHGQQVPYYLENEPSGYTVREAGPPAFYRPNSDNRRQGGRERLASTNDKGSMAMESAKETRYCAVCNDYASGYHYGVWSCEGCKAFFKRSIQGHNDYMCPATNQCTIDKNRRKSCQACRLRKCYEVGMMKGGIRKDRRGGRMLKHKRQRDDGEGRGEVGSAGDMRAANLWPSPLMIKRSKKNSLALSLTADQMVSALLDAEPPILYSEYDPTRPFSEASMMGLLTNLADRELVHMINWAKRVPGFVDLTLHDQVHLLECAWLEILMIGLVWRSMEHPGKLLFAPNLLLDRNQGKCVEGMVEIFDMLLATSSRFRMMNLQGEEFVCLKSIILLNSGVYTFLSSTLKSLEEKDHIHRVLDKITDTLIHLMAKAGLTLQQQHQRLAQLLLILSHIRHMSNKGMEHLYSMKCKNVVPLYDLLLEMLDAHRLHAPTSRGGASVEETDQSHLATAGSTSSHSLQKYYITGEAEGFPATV

[13] = system: H9c2; test: cells; format: functional, cell-based; conditions: Rattus norvegicus, H9c2, Myocardium;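 also: confirmatory concentration-response retest of ultra-high-throughput screening hits for modulation of myocardial damage; cell death induced by hydrogen peroxide oxidative stress; compound pretreatment for 60 min then peroxide exposure for 2 h; potency is for protecting the cells against peroxide damage rather than for killing them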

Chain of Estrogen receptor beta (Q92731 whole entry): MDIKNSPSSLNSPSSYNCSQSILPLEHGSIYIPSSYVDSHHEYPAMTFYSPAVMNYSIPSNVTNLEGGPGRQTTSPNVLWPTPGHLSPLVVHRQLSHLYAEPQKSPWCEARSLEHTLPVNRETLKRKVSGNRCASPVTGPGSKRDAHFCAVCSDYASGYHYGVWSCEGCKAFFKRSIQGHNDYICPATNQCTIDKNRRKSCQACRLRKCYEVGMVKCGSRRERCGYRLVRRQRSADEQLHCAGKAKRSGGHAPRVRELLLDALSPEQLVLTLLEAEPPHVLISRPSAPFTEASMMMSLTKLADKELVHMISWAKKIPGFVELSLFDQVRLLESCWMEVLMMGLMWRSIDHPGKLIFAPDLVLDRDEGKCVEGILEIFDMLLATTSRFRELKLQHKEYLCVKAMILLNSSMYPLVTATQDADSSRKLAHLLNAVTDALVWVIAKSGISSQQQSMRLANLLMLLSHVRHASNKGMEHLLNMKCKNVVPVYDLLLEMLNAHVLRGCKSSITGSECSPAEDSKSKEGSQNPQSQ
Chain of Voltage-gated N-type calcium channel alpha-1B subunit/Amyloid beta A4 precursor protein-binding family A member 1 (Q00975 whole entry): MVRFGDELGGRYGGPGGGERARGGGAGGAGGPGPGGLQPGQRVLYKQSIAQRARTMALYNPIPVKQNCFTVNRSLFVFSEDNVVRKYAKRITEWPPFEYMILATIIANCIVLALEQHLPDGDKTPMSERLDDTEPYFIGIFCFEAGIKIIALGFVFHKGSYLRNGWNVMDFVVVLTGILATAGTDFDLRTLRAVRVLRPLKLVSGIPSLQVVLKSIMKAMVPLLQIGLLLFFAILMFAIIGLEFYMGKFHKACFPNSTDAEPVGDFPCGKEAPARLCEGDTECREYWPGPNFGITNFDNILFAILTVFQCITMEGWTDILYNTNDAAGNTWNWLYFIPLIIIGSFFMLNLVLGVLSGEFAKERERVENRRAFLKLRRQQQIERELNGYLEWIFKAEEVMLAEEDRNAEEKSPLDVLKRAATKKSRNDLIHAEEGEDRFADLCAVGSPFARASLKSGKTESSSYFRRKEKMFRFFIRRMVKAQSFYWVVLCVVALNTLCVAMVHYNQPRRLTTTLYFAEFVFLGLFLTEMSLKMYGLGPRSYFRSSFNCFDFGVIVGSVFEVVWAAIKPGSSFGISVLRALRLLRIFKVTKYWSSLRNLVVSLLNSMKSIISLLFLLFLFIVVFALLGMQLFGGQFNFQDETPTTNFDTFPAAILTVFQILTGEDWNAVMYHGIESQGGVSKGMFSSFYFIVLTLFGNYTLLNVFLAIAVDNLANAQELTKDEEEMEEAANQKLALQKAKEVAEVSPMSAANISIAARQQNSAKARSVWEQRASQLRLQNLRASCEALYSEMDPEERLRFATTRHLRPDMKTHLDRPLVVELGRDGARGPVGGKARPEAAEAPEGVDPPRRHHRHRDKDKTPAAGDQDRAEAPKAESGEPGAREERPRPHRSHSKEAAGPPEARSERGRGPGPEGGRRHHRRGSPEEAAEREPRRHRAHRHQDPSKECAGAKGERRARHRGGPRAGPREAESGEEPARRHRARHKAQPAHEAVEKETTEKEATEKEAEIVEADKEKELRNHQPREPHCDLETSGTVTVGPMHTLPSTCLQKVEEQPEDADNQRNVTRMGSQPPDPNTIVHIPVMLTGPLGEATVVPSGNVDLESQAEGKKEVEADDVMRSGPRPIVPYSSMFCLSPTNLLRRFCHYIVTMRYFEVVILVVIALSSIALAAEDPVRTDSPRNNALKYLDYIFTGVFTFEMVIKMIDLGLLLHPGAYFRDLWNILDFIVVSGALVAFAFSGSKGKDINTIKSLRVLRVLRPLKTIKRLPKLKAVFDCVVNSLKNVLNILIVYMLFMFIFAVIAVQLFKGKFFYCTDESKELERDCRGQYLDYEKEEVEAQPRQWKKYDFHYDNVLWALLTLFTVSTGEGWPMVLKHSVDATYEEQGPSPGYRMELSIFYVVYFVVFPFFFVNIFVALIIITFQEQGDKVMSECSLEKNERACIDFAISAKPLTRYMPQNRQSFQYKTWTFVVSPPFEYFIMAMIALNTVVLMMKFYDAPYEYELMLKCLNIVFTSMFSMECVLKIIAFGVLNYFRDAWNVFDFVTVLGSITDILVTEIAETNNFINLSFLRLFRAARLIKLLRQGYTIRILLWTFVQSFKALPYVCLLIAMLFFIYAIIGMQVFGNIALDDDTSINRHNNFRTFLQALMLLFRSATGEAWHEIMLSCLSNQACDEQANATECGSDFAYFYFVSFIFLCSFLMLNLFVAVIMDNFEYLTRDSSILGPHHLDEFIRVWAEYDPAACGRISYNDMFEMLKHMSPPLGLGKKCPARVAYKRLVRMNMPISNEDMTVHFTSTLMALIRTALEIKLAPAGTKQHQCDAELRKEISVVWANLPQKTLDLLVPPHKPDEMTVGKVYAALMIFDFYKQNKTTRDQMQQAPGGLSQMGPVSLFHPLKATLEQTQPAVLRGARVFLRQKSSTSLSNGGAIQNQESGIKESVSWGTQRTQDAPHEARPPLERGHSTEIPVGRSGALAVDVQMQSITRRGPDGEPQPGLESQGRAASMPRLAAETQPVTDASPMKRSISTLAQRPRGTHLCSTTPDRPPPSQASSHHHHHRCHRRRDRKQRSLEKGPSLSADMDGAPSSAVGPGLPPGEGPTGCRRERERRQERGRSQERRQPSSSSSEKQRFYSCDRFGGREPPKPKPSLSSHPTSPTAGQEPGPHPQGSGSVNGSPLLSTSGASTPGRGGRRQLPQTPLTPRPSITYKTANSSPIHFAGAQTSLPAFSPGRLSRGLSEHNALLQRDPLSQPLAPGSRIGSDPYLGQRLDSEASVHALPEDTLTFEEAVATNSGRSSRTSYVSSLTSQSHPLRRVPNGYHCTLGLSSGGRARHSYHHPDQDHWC
Chain of Voltage-gated N-type calcium channel alpha-1B subunit/Amyloid beta A4 precursor protein-binding family A member 1 (Q02410 whole entry): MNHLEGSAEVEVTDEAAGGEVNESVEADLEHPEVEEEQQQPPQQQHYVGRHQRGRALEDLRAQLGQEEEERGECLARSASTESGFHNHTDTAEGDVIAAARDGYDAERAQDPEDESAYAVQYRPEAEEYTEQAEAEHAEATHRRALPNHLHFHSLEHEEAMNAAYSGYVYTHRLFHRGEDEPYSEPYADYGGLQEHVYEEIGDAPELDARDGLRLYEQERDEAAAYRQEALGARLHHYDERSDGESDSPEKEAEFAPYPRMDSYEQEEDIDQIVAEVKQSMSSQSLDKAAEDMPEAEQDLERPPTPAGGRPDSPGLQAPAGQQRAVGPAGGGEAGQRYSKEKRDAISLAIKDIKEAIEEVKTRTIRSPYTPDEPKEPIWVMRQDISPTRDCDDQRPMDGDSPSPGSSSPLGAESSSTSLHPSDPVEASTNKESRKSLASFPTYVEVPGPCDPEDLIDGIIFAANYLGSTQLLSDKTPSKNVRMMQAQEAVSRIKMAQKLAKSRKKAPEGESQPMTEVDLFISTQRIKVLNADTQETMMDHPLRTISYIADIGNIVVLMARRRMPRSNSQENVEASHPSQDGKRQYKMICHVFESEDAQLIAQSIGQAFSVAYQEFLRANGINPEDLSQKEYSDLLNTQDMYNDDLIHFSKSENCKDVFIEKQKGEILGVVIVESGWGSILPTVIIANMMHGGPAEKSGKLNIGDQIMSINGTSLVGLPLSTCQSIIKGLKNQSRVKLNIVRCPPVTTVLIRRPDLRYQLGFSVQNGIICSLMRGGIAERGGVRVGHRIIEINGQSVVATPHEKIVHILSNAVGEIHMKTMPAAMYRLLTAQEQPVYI
Chain of Protein-tyrosine kinase 2-beta (Q14289 whole entry): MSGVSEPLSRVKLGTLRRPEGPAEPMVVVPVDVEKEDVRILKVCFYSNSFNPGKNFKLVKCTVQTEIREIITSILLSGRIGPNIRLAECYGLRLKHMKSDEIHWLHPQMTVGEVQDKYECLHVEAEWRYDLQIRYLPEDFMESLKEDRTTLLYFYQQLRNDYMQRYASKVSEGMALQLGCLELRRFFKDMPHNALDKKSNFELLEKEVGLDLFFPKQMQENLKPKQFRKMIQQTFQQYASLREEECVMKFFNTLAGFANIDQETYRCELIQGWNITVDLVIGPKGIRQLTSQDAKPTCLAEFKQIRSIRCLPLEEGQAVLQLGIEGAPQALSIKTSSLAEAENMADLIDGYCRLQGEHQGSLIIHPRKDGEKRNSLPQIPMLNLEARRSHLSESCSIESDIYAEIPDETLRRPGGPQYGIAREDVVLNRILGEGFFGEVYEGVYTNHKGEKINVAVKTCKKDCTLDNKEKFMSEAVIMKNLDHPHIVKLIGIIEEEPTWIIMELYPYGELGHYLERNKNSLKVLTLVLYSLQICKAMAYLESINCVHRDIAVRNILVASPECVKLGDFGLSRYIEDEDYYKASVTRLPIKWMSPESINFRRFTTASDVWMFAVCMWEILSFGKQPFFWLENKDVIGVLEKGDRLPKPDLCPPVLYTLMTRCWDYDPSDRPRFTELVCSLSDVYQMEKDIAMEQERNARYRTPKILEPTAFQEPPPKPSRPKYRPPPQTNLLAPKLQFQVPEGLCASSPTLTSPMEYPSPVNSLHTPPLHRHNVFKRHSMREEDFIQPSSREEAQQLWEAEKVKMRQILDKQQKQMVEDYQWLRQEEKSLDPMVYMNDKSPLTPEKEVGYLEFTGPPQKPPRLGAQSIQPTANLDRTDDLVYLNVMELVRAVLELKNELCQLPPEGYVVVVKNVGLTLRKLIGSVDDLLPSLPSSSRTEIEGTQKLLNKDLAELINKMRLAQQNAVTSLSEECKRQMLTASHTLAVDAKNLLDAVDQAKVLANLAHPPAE

## Cn1cccc1/C=C1\C(=O)NC(=O)N(Cc2ccco2)C1=O
[1]
  EC50: > 300 µM (not active)
[2]
  IC50: 4.88 µM (active)
[3]
  CC50: > 40 µM (active)
[4]
  EC50: 57.7 µM (active)
[5]
  IC50: 116 µM (active)

## O=C(CN1C(=O)c2ccccc2C1=O)Nc1ccc2c(c1)OCO2
[6]
  IC50: 9.43 µM (active)

## O=C(OCC(=O)N1CCN(C(=O)c2ccco2)CC1)c1cc(-c2ccc(Cl)c(Cl)c2Cl)nc2ccccc12
[7]
  IC50: 5.94 µM (active)

## N#Cc1c(NC(=O)CN2CCCCC2)sc2c1CCC2
[8]
  IC50: 0.0561 µM (not active)

## CCCN(CC(=O)Nc1ccccc1OC)C(=O)CSc1ccc(Br)cc1C
[9]
  IC50: 48.4 µM (active)
[3]
  CC50: > 40 µM (active)

## Cc1nc(SCC(=O)Nc2ccc3c(c2)OCCO3)nc(C)c1C
[6]
  IC50: 43.5 µM (active)

## CCOc1ccc(NC(=O)Cn2cncc2-c2ccc([N+](=O)[O-])cc2)cc1
[10]
  IC50: 5.93 µM (active)

## COc1cc(/C=c2\s/c(=C(/C#N)C(=O)N3CCCC3)n(-c3ccccc3)c2=O)ccc1O
[11]
  EC50: 8.71 µM (active)
[12]
  IC50: > 50 µM (not active)
[13]
  IC50: > 79 µM (inactive)
